According to ChEMBL document CHEMBL1150212, “Antitumor agents, 129. Tannins and related compounds as selective cytotoxic agents” (1992):
*1 amine or outer side, *2 acyl side, *3 side chain or, on linkers, in order; H or OH if unused. Where a SMILES comes first, the peptide text is derived from it. Bridges are numbered along the chain shown (N, C = ends). Roman numbers before positions name the chains, in order. [ ]: non-standard residue; d: D form. Actinocin(1to9) = Cc1c2oc3c(C)ccc(C(=O)[*:2])c3nc-2c(C(=O)[*:1])c(N)c1=O; NMeV = CN[C@H](C(=O)O)C(C)C; Sar = CNCC(=O)O

Assays:
Format in all cases: functional
Details in all cases: read-out: ED50 (the source's name)
[1] = Cytotoxicity against human […] cells by tetrazolium salt-based colorimetric assay
KB = assay: Cytotoxicity against human KB cells by tetrazolium salt-based colorimetric assay
A549 = assay: Cytotoxicity against human A549 cells by tetrazolium salt-based colorimetric assay
HCT-8 = assay: Cytotoxicity against human HCT8 cells by tetrazolium salt-based colorimetric assay
TE-671 = assay: Cytotoxicity against human TE671 cells by tetrazolium salt-based colorimetric assay

Compound	EC50 [1] [µg/mL]	EC50 (KB) [µg/mL]	EC50 (A549) [µg/mL]	EC50 (HCT-8) [µg/mL]	EC50 (TE-671) [µg/mL]
O=C(OC[C@H]1O[C@@H](OC(=O)c2cc(O)c(O)c(O)c2)[C@H](O)[C@@H](O)[C@@H]1OC(=O)c1cc(O)c(O)c(O)c1)c1cc(O)c(O)c(O)c1	> 10	> 10	> 10	> 10	> 10
Oc1cc(O)c2c(c1)O[C@@]1(c3ccc(O)c(O)c3)Oc3cc(O)c4c(c3[C@@H]2[C@H]1O)O[C@H](c1ccc(O)c(O)c1)[C@H](O)C4 [PROANTHOCYANIDIN A2]	5.5	> 10	> 10	> 10	> 10
O=C1OCC2OC(=O)c3cc(O)c(O)c(O)c3-c3c(O)c(O)c(O)c4c3C(=O)OC(C2OC(=O)c2cc(O)c(O)c(O)c2-c2c1cc(O)c(O)c2O)C1OC(=O)c2c-4c(O)c(O)c(O)c2C1O (stereo unspecified) [VESCALAGIN]	0.58	> 10	> 10	> 10	> 10
O=C(OC[C@H]1O[C@@H](OC(=O)c2cc(O)c(O)c(O)c2)[C@H](OC(=O)c2cc(O)c(O)c(O)c2)[C@@H](O)[C@@H]1O)c1cc(O)c(O)c(O)c1	> 10	> 10	> 10	> 10	> 10
O=C(O[C@@H]1C[C@](OC(=O)c2cc(O)c(O)c(O)c2)(C(=O)O)C[C@@H](OC(=O)c2cc(O)c(O)c(O)c2)[C@H]1OC(=O)c1cc(O)c(O)c(O)c1)c1cc(O)c(O)c(O)c1	0.43	> 10	> 10	> 10	> 10
O=C(OC[C@H]1O[C@@H](OC(=O)c2cc(O)c(O)c(O)c2)[C@H](O)[C@@H](O)[C@@H]1O)c1cc(O)c(O)c(O)c1	> 10	> 10	> 10	> 10	> 10
O=C(O)C1=C[C@@H](OC(=O)c2cc(O)c(O)c(O)c2)[C@@H](O)[C@H](OC(=O)c2cc(O)c(O)c(O)c2)C1	> 10	> 10	> 10	> 10	> 10
O=C1OC[C@H]2OC(O)[C@@H]3OC(=O)c4cc(O)c(O)c(O)c4-c4c(cc(O)c(O)c4O)C(=O)O[C@H]3[C@@H]2OC(=O)c2cc(O)c(O)c(O)c2-c2c1cc(O)c(O)c2O (stereo partly specified) [PEDUNCULAGIN]	2.74	> 10	> 10	> 10	> 10
O=C(O[C@@H]1O[C@@H]2COC(=O)c3cc(O)c(O)c(O)c3-c3c(cc(O)c(O)c3O)C(=O)O[C@H]2[C@@H]2OC(=O)c3cc(O)c(O)c(O)c3-c3c(cc(O)c(O)c3O)C(=O)O[C@@H]12)c1cc(O)c(O)c(O)c1	0.21	> 10	> 10	> 10	> 10
O=C1OC[C@H]2OC(=O)c3cc(O)c(O)c(O)c3-c3c(O)c(O)c(O)c4c3C(=O)O[C@H]([C@H]3OC(=O)c5c-4c(O)c(O)c(O)c5[C@@H]3C3(O)OC[C@H](O)[C@@H](O)[C@H]3O)[C@@H]2OC(=O)c2cc(O)c(O)c(O)c2-c2c1cc(O)c(O)c2O (stereo partly specified) [GRANDININ]	0.1	> 10	> 10	> 10	> 10
O=C1O[C@H]2[C@@H]3OC(=O)c4cc(Oc5c(C(=O)O)cc(O)c(O)c5O)c(O)c(O)c4-c4c(cc(O)c(O)c4O)C(=O)OC[C@H]2O[C@@H](OC(=O)c2cc(O)c(O)c(O)c2)[C@@H]3OC(=O)c2cc(O)c(O)c3c2[C@@H]2C1=CC(=O)[C@](O)(O3)C2(O)O [MALLOTUSINIC ACID]	> 10	> 10	> 10	> 10	> 10
O=C(O[C@H]1[C@H](O)C[C@](OC(=O)c2cc(O)c(O)c(O)c2)(C(=O)O)C[C@H]1OC(=O)c1cc(O)c(O)c(O)c1)c1cc(O)c(O)c(O)c1	> 10	> 10	> 10	> 10	> 10
O=C1O[C@H]2[C@H](O)[C@@H](CO)OC(O)[C@@H]2OC(=O)c2cc(O)c(O)c(O)c2-c2c1cc(O)c(O)c2O (stereo partly specified)	> 10	> 10	> 10	> 10	> 10
O=C1OC[C@H]2OC(=O)c3cc(O)c(O)c(O)c3-c3c(O)c(O)c(O)c4c3C(=O)O[C@H]([C@H]3OC(=O)C5C4=C(O)C(=O)C54Oc5cc(O)c6c(c5[C@H]34)O[C@H](c3ccc(O)c(O)c3)[C@@H](O)C6)[C@@H]2OC(=O)c2cc(O)c(O)c(O)c2-c2c1cc(O)c(O)c2O [MONGOLICAIN A]	> 10	> 10	> 10	> 10	> 10
Oc1cc(O)c2c(c1)O[C@H](c1ccc(O)c(O)c1)[C@H](O)[C@H]2c1c(O)cc(O)c2c1O[C@@]1(c3ccc(O)c(O)c3)Oc3cc(O)c4c(c3[C@@H]2[C@H]1O)O[C@H](c1ccc(O)c(O)c1)[C@H](O)[C@H]4c1c(O)cc(O)c2c1O[C@H](c1ccc(O)c(O)c1)[C@H](O)C2 [CINNAMTANNIN B2]	0.66	> 10	> 10	> 10	> 10
Oc1cc(O)c2c(c1)O[C@H](c1ccc(O)c(O)c1)[C@H](O)C2 [(-)-EPICATECHIN]	> 10	> 10	> 10	> 10	> 10
O=C(O[C@H]1[C@H](O)C[C@](O)(C(=O)O)C[C@H]1OC(=O)c1cc(O)c(O)c(O)c1)c1cc(O)c(O)c(O)c1	0.53	> 10	> 10	> 10	> 10
O=C(O[C@@H]1O[C@@H]2COC(=O)c3cc(O)c(O)c(O)c3-c3c(cc(O)c(O)c3O)C(=O)O[C@H]2[C@H](O)[C@H]1O)c1cc(O)c(O)c(O)c1 [STRICTININ]	4.86	> 10	> 10	> 10	> 10
O=C(O)C1=C[C@@H](O)[C@@H](O)[C@H](OC(=O)c2cc(O)c(O)c(O)c2)C1	> 10	> 10	> 10	> 10	> 10
O=C(O[C@@H]1COC(=O)c2cc(O)c(O)c(O)c2-c2c(cc(O)c(O)c2O)C(=O)O[C@H]1[C@@H]1OC(=O)c2cc(O)c(O)c(O)c2-c2c(O)c(O)c(O)c3c2C(=O)O[C@H]1[C@@H]3O)c1cc(O)c(O)c(O)c1 [CASUARININ]	2.24	> 10	> 10	> 10	> 10
O=C(OC[C@H]1O[C@@H](OC(=O)c2cc(O)c(O)c(O)c2)[C@H](OC(=O)c2cc(O)c(O)c(O)c2)[C@@H](OC(=O)c2cc(O)c(O)c(O)c2)[C@@H]1OC(=O)c1cc(O)c(O)c(O)c1)c1cc(O)c(O)c(O)c1 [PENTAGALLOYL GLUCOSE]	5.01	> 10	> 10	> 10	> 10
Cc1c2oc3c(C)ccc(C(=O)N[C@@H]4C(=O)N[C@H](C(C)C)C(=O)N5CCC[C@H]5C(=O)N(C)CC(=O)N(C)[C@@H](C(C)C)C(=O)O[C@@H]4C)c3nc-2c(C(=O)N[C@@H]2C(=O)N[C@H](C(C)C)C(=O)N3CCC[C@H]3C(=O)N(C)CC(=O)N(C)[C@@H](C(C)C)C(=O)O[C@@H]2C)c(N)c1=O [DACTINOMYCIN] (I: T[dV]P[Sar][NMeV] / II: T[dV]P[Sar][NMeV]; ester I:1-I:C, II:1-II:C; linker I:N-II:N via Actinocin(1to9))	< 0.01	–	–	–	–
O=C(O[C@@H]1Cc2c(O)cc(O)cc2O[C@@H]1c1ccc(O)c(O)c1)c1cc(O)c(O)c(O)c1 [EPICATECHIN GALLATE]	0.55	> 10	> 10	> 10	> 10
O=C(O[C@@H]1O[C@@H]2COC(=O)c3cc(O)c(O)c(O)c3-c3c(cc(O)c(O)c3O)C(=O)O[C@H]2[C@@H]2OC(=O)c3cc(O)c(O)c(O)c3-c3c(cc(O)c(O)c3O)C(=O)O[C@@H]12)c1cc(O)c(O)c(Oc2c(O)c(O)c(O)c3c2C(=O)O[C@H]2[C@@H]4OC(=O)c5cc(O)c(O)c(O)c5-c5c(cc(O)c(O)c5O)C(=O)O[C@H]4[C@@H](OC(=O)c4cc(O)c(O)c(Oc5c(O)c(O)c(O)c6c5C(=O)O[C@H]5[C@@H]7OC(=O)c8cc(O)c(O)c(O)c8-c8c(cc(O)c(O)c8O)C(=O)O[C@H]7[C@H](OC(=O)c7cc(O)c(O)c(Oc8c(O)c(O)c(O)c9c8C(=O)O[C@H]8[C@@H]%10OC(=O)c%11cc(O)c(O)c(O)c%11-c%11c(cc(O)c(O)c%11O)C(=O)O[C@H]%10[C@@H](OC(=O)c%10cc(O)c(O)c(O)c%10)O[C@@H]8COC(=O)c8cc(O)c(O)c(O)c8-9)c7)O[C@@H]5COC(=O)c5cc(O)c(O)c(O)c5-6)c4)O[C@@H]2COC(=O)c2cc(O)c(O)c(O)c2-3)c1	0.5	> 10	> 10	> 10	> 10
O=C(O[C@@H]1[C@@H](c2c(O)cc(O)c3c2O[C@H](c2ccc(O)c(O)c2)[C@H](OC(=O)c2cc(O)c(O)c(O)c2)C3)c2c(O)cc(O)cc2O[C@@H]1c1ccc(O)c(O)c1)c1cc(O)c(O)c(O)c1	3.45	> 10	> 10	> 10	> 10
O=C(O[C@@H]1C[C@](O)(C(=O)O)C[C@@H](OC(=O)c2cc(O)c(O)c(O)c2)[C@H]1OC(=O)c1cc(O)c(O)c(O)c1)c1cc(O)c(O)c(O)c1	> 10	> 10	> 10	> 10	> 10
O=C(O)c1cc(O)c(O)c(Oc2cc3c(c(O)c2O)-c2c(cc(O)c(O)c2O)C(=O)OC[C@H]2O[C@@H](OC(=O)c4cc(O)c(O)c(O)c4)[C@H](OC(=O)c4cc(O)c(O)c(O)c4)[C@@H](OC(=O)c4cc(O)c(O)c(O)c4)[C@@H]2OC3=O)c1	0.44	> 10	> 10	> 10	> 10
